{
  "source": "patent US20260315604A1",
  "about": "“OTUB1 Small-Molecule Binders and OTUB1-recruiting Deubiquitinase-targeting Chimeras (DUBTACs)” (ICAHN SCHOOL OF MEDICINE AT MOUNT SINAI, priority 2023, published 2026)",
  "data": [
    {"target": "T1, Human OTUB1 wild-type (Homo sapiens, UniProt Q96FW1)", "T1 construct": "His tag (N); made in house; host or cells: E. coli BL21-CodonPlus (DE3)-RIPIL", "assay": "Covalent modification of OTUB1 (adduct formation), mass spectrometry-based assay (OTUB1 covalent binders; selected CFTR or cGAS based bivalent compounds)", "format": "binding", "settings": "covalent adduct formation with OTUB1 protein", "experimental": "OTUB1 covalent binders were tested for their ability to form the covalent adduct with OTUB1 protein using a mass-spectrometry based assay.\nExample 389. Assessment of the Covalent Modification of OTUB1 Protein by Selected OTUB1 Covalent Binders Using a Mass Spectrometry-Based Assay (FIG. 1)\nOTUB1 protein (10 μM) was incubated with selecting compounds (2500 μM) at RT for 1 h. The adduct was qualified by mass spectrometry-based assays.\nExample 398. Assessment of the Covalent Modification of OTUB1 Protein by Selected CFTR Based Bivalent Compounds Using Mass Spectrometry-Based Assay (FIG. 10)\nOTUB1 protein (10 μM) was incubated with selecting bivalent compounds (2500 μM) at RT for 1 h. The adduct was qualified by mass spectrometry-based assays.\nHuman OTUB1 wild-type (NM_017670.3) and C23S mutation genes were optimized based on the codon preference of E. coli, synthesized and cloned into pET15b vector with a N-terminal His tag by Genscript, respectively. The plasmid was transferred to BL21-CodonPlus (DE3)-RIPIL Competent Cell (230280, Agilent Technologies) and the recombinant protein was induced expressed by 0.5 mM IPTG at 16° C. with shaking 200 rpm for 18 h. Induced cells were harvested by centrifugation and resuspended in cold lysis buffer (50 mM Tris-H—Cl pH 7.5, 150 mM NaCl, 25 mM imidazole pH 7.5, 0.01% IGEPAL, 5% Glycerol) in the presence of Pierce Protease Inhibitor tablets (PIA32963, Fisher Scientific) and 2 mM TCEP pH 7.5.\nThe cells were lysed by sonication, clarified by centrifugation, and the filtered supernatant loaded onto a 5 ml HisTrap HP affinity column (17524802, Cytiva) in AKTA system. The His-recombinant protein bound to column was washed using buffer A (50 mM Tris-HCl pH 7.5, 150 mM NaCl, 25 mM imidazole pH 7.5, 0.01% IGEPAL, 5% Glycerol) and eluted with buffer B (50 mM Tris-HCl pH 7.5, 150 mM NaCl, 250 mM imidazole pH 7.5, 0.01% IGEPAL, 5% Glycerol). The eluted fractions containing OTUB1 protein were concentrated and subjected to size exclusion chromatography using a 320 mL HiLoad 26/600 Superdex 200 pg column (28989336, Cytiva) under the buffer condition ([…] Tris-HCl pH 7.5, 150 mM NaCl, and 2 mM TCEP pH 7.5). The eluted fractions containing OTUB1 protein were concentrated, divided into aliquots and stored at −80° C. freezer for further usage.\nQuality control of the OTUB1 proteins was performed by SDS-PAGE, Nanodrop and mass spectrometry.\nMass Spectrometry-Based Analysis of OTUB1-Covalent Ligand Adducts\nTo screen the covalent ligands, recombinant OTUB1 protein (10 μM) was respectively incubated with DMSO, EN523 or seven novel ligands (2500 μM) in reaction buffer (50 mM Tris-HCl pH 7.5, 150 mM NaCl, and 0.5 mM TCEP pH 7.5) for 1 h at room temperature.\nThen, the total 500 μL reaction solution was exchanged and concentrated to 50 μL 50 mM ammonium bicarbonate with a 10 kDa MWCO centrifugal filter unit (UFC901024, Millipore) and diluted in MS buffer (30% ACN, 0.2% FA) to a final concentration of […]. Mass spectrometry detection was performed by an Agilent LC/MSD Time-Of-Flight (TOF) mass spectrometer (Agilent Technologies) equipped with an electrospray ion source. The data was analyzed by TOF Protein Confirmation Software. All experiments were performed in duplicate.", "units": {"% of OTUB1 modified": "%"}, "values": [
      {"smiles": "Cc1ccc(N2CCN(C(=O)/C=C/CN(C)C)CC2)s1", "note": "[XS165-172, (E)-4-(dimethylamino)-1-(4-(5-methylthiophen-2-yl)piperazin-1-yl)but-2-en-1-one]", "% of OTUB1 modified": "<1"},
      {"smiles": "Cc1ccc(N2CCN(C(=O)/C(C#N)=C/C(C)(C)C)CC2=O)s1", "note": "[XS165-177, (E)-4,4-dimethyl-2-(4-(5-methylthiophen-2-yl)-3-oxopiperazine-1-carbonyl)pent-2-enenitrile]", "% of OTUB1 modified": 10},
      {"smiles": "Cc1cc(C)c(N2CCN(C(=O)/C=C/CN(C)C)CC2=O)s1", "note": "[XS175-45, (E)-4-(4-(dimethylamino)but-2-enoyl)-1-(3,5-dimethylthiophen-2-yl)piperazin-2-one]", "% of OTUB1 modified": 45},
      {"smiles": "Cc1csc(N2CCN(C(=O)/C=C/CN(C)C)CC2=O)c1", "note": "[XS175-46, (E)-4-(4-(dimethylamino)but-2-enoyl)-1-(4-methylthiophen-2-yl)piperazin-2-one]", "% of OTUB1 modified": 90},
      {"smiles": "Cc1cc(N2CCN(C(=O)/C=C/CN(C)C)CC2=O)cs1", "note": "[XS175-59, (E)-4-(4-(dimethylamino)but-2-enoyl)-1-(5-methylthiophen-3-yl)piperazin-2-one]", "% of OTUB1 modified": 80},
      {"smiles": "CCc1ccc(N2CCN(C(=O)/C=C/CN(C)C)CC2=O)s1", "note": "[XS175-63, (E)-4-(4-(dimethylamino)but-2-enoyl)-1-(5-ethylthiophen-2-yl)piperazin-2-one]", "% of OTUB1 modified": 75},
      {"smiles": "CC(C)c1ccc(N2CCN(C(=O)/C=C/CN(C)C)CC2=O)s1", "note": "[XS175-64, (E)-4-(4-(dimethylamino)but-2-enoyl)-1-(5-isopropylthiophen-2-yl)piperazin-2-one]", "% of OTUB1 modified": 95},
      {"smiles": "Cc1sccc1N1CCN(C(=O)/C=C/CN(C)C)CC1=O", "note": "[XS175-67, (E)-4-(4-(dimethylamino)but-2-enoyl)-1-(2-methylthiophen-3-yl)piperazin-2-one]", "% of OTUB1 modified": 60},
      {"smiles": "Cc1ccsc1N1CCN(C(=O)/C=C/CN(C)C)CC1=O", "note": "[XS175-68, (E)-4-(4-(dimethylamino)but-2-enoyl)-1-(3-methylthiophen-2-yl)piperazin-2-one]", "% of OTUB1 modified": 70},
      {"smiles": "Cc1cc(N2CCN(C(=O)/C=C/CN(C)C)CC2=O)sc1C", "note": "[XS175-70, (E)-4-(4-(dimethylamino)but-2-enoyl)-1-(4,5-dimethylthiophen-2-yl)piperazin-2-one]", "% of OTUB1 modified": 90},
      {"smiles": "Cc1ccc(NC(=O)C2CN(C(=O)/C=C/CN(C)C)C2)s1", "note": "[XS175-71, (E)-1-(4-(dimethylamino)but-2-enoyl)-N-(5-methylthiophen-2-yl)azetidine-3-carboxamide]", "% of OTUB1 modified": 40},
      {"smiles": "Cc1ccc(N2CCCN(C(=O)/C=C/CN(C)C)CC2=O)s1", "note": "[XS175-120, (E)-4-(4-(dimethylamino)but-2-enoyl)-1-(5-methylthiophen-2-yl)-1,4-diazepan-2-one]", "% of OTUB1 modified": 47},
      {"smiles": "Cc1ccc(NC(=O)C2CN(C(=O)CCl)C2)s1", "note": "[XS175-126, 1-(2-chloroacetyl)-N-(5-methylthiophen-2-yl)azetidine-3-carboxamide]", "% of OTUB1 modified": 100},
      {"smiles": "Cc1ccc(NC(=O)C2CCN(C(=O)/C=C/CN(C)C)C2)s1", "note": "(centres unmarked) [XS175-133, (E)-1-(4-(dimethylamino)but-2-enoyl)-N-(5-methylthiophen-2-yl)pyrrolidine-3-carboxamide]", "% of OTUB1 modified": 2},
      {"smiles": "CC(C)c1ccc(NC(=O)C2CN(C(=O)/C=C/CN(C)C)C2)s1", "note": "[XS175-143, (E)-1-(4-(dimethylamino)but-2-enoyl)-N-(5-isopropylthiophen-2-yl)azetidine-3-carboxamide]", "% of OTUB1 modified": 45},
      {"smiles": "Cc1ccc(NC(=O)C2CCCCN2C(=O)/C=C/CN(C)C)s1", "note": "(centres unmarked) [XS175-148, (E)-1-(4-(dimethylamino)but-2-enoyl)-N-(5-methylthiophen-2-yl)piperidine-2-carboxamide]", "% of OTUB1 modified": 20},
      {"smiles": "Cc1ccc(NC(=O)C2CC3(C2)CN(C(=O)/C=C/CN(C)C)C3)s1", "note": "[XS175-149, (E)-2-(4-(dimethylamino)but-2-enoyl)-N-(5-methylthiophen-2-yl)-2-azaspiro[3.3]heptane-6-carboxamide]", "% of OTUB1 modified": 18},
      {"smiles": "CN(C)C/C=C/C(=O)N1CCN(c2ccc(-c3ccccc3)s2)C(=O)C1", "note": "[XS175-158, (E)-4-(4-(dimethylamino)but-2-enoyl)-1-(5-phenylthiophen-2-yl)piperazin-2-one]", "% of OTUB1 modified": 45},
      {"smiles": "Cc1ccc(N(C)C(=O)CCN(C)C(=O)/C=C/CN(C)C)s1", "note": "[XS175-160, (E)-4-(dimethylamino)-N-methyl-N-(3-(methyl(5-methylthiophen-2-yl)amino)-3-oxopropyl)but-2-enamide]", "% of OTUB1 modified": "<1"},
      {"smiles": "Cc1csc(NC(=O)C2CCN(C(=O)/C=C/CN(C)C)CC2)c1", "note": "[XS175-173, (E)-1-(4-(dimethylamino)but-2-enoyl)-N-(4-methylthiophen-2-yl)piperidine-4-carboxamide]", "% of OTUB1 modified": 3},
      {"smiles": "CC(C)c1ccc(NC(=O)C2CCN(C(=O)/C=C/CN(C)C)CC2)s1", "note": "[XS175-178, (E)-1-(4-(dimethylamino)but-2-enoyl)-N-(5-isopropylthiophen-2-yl)piperidine-4-carboxamide]", "% of OTUB1 modified": 3},
      {"smiles": "CN(C)C/C=C/C(=O)N1CCN(c2cc3ccccc3s2)C(=O)C1", "note": "[XS175-179, (E)-1-(benzo[b]thiophen-2-yl)-4-(4-(dimethylamino)but-2-enoyl)piperazin-2-one]", "% of OTUB1 modified": 100},
      {"smiles": "CC(C)c1ccc(NC(=O)C2CCN(C(=O)/C=C/CN(C)C)C2)s1", "note": "(centres unmarked) [XS175-180, (E)-1-(4-(dimethylamino)but-2-enoyl)-N-(5-isopropylthiophen-2-yl)pyrrolidine-3-carboxamide]", "% of OTUB1 modified": 8},
      {"smiles": "CN(C)C/C=C/C(=O)N1CCN(c2cc3c(s2)CCCC3)C(=O)C1", "note": "[XS175-186, (E)-4-(4-(dimethylamino)but-2-enoyl)-1-(4,5,6,7-tetrahydrobenzo[b]thiophen-2-yl)piperazin-2-one]", "% of OTUB1 modified": 100},
      {"smiles": "Cc1ccc(N2CC3(CN(C(=O)/C=C/CN(C)C)C3)C2)s1", "note": "[XS185-3, (E)-4-(dimethylamino)-1-(6-(5-methylthiophen-2-yl)-2,6-diazaspiro[3.3]heptan-2-yl)but-2-en-1-one]", "% of OTUB1 modified": 35},
      {"smiles": "Cc1ccc(NC(=O)C2CCN(C(=O)CCl)CC2)s1", "note": "[XS185-4, 1-(2-chloroacetyl)-N-(5-methylthiophen-2-yl)piperidine-4-carboxamide]", "% of OTUB1 modified": 100},
      {"smiles": "Cc1ccc(NC(=O)C2CC3(C2)CN(C(=O)CCl)C3)s1", "note": "[XS185-5, 2-(2-chloroacetyl)-N-(5-methylthiophen-2-yl)-2-azaspiro[3.3]heptane-6-carboxamide]", "% of OTUB1 modified": 100},
      {"smiles": "CC(C)c1ccc(NC(=O)C2CCN(C(=O)CCl)CC2)s1", "note": "[XS185-6, 1-(2-chloroacetyl)-N-(5-isopropylthiophen-2-yl)piperidine-4-carboxamide]", "% of OTUB1 modified": 100},
      {"smiles": "CN(C)C/C=C/C(=O)N1CCN(c2c[nH]c3ccccc23)C(=O)C1", "note": "[XS185-43, (E)-4-(4-(dimethylamino)but-2-enoyl)-1-(1H-indol-3-yl)piperazin-2-one]", "% of OTUB1 modified": 58},
      {"smiles": "CN(C)C/C=C/C(=O)N1CC2(C1)CN(c1cc3ccccc3s1)C2", "note": "[XS185-46, (E)-1-(6-(benzo[b]thiophen-2-yl)-2,6-diazaspiro[3.3]heptan-2-yl)-4-(dimethylamino)but-2-en-1-one]", "% of OTUB1 modified": 1},
      {"smiles": "Cc1ccc(C(=O)N2CCN(C(=O)/C=C/CN(C)C)CC2)s1", "note": "[XS185-64, (E)-4-(dimethylamino)-1-(4-(5-methylthiophene-2-carbonyl)piperazin-1-yl)but-2-en-1-one]", "% of OTUB1 modified": 20},
      {"smiles": "Cc1ccc(C(=O)N2CCC(NC(=O)/C=C/CN(C)C)CC2)s1", "note": "[XS185-65, (E)-4-(dimethylamino)-N-(1-(5-methylthiophene-2-carbonyl)piperidin-4-yl)but-2-enamide]", "% of OTUB1 modified": 1}
    ]}
  ]
}
